Assay results from US6274715A, “Tricyclic erythromycin derivatives” (priority 1997, dated 2001).

What was measured:
Format in all cases: cell-based
ESCHERICHIA COLI SS = experiment: In vitro antibacterial activity, MIC, BHI agar dilution; conditions: E. coli SS, unit assumed
[1] = tested on: STREPTOCOCCUS PYOGENES EES61; experiment: as above; conditions: S. pyogenes EES61, unit assumed
[2] = tested on: STAPHYLOCOCCUS AUREUS 1775; experiment: as above; conditions: S. aureus 1775, unit assumed
M[…] ATCC 9341 = experiment: as above; conditions: M. luteus ATCC 9341, unit assumed
Method in brief: (§1)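 Agar dilution in BHI: plates inoculated with 1:100 dilutions of organisms (1:10 for Micrococcus and Streptococcus), incubated 20-24 h at 35-37° C, then inspected for the lowest inhibitory concentration against a drug-free growth control.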

M[…] ATCC 4698 = experiment: as above; conditions: M. luteus ATCC 4698, unit assumed
Method in brief: as §1

STR[…] 508 = experiment: as above; conditions: S. agalactiae CMX 508, unit assumed
Method in brief: as §1

EN[…] ATCC 8043 = experiment: as above; conditions: E. faecium ATCC 8043, unit assumed
Method in brief: as §1

[3] = tested on: PSEUDOMONAS AERUGINOSA DPHD-2862; experiment: as above; conditions: P. aeruginosa DPHD-2862, unit assumed
[4] = tested on: STAPHYLOCOCCUS AUREUS CMX 553; experiment: as above; conditions: S. aureus CMX 553, unit assumed
[5] = tested on: MYCOBACTERIUM SMEGMATIS ATCC 114; experiment: as above; conditions: M. smegmatis ATCC 114, unit assumed
PSEUDOMONAS CEPACIA 296I = experiment: as above; conditions: P. cepacia 296I, unit assumed
[6] = tested on: STAPHYLOCOCCUS AUREUS ATCC 6538P; experiment: as above; conditions: S. aureus ATCC 6538P, 35-37° C., 20 to 24 hours, unit assumed
[7] = tested on: STREPTOCOCCUS PYOGENES 930; experiment: as above; conditions: S. pyogenes 930, unit assumed
[8] = tested on: PSEUDOMONAS AERUGINOSA K799/WT; experiment: as above; conditions: P. aeruginosa K799/WT, unit assumed
[9] = tested on: PROVIDENCIA STUARTII CMX 640; conditions: P. stuartii CMX 640; BHI agar; unit assumed
[10] = tested on: STAPHYLOCOCCUS AUREUS NCTC10649M; experiment: In vitro antibacterial activity, MIC, BHI agar dilution; conditions: S. aureus NCTC10649M, unit assumed
[11] = tested on: KLEBSIELLA PNEUMONIAE ATCC 8045; experiment: as above; conditions: K. pneumoniae ATCC 8045, unit assumed
[12] = tested on: PSEUDOMONAS AERUGINOSA 5007; experiment: as above; conditions: P. aeruginosa 5007, unit assumed
[13] = tested on: ENTEROBACTER AEROGENES ATCC 13048; experiment: as above; conditions: E. aerogenes ATCC 13048, unit assumed
ESCHERICHIA COLI H560 = experiment: as above; conditions: E. coli H560, unit assumed
[14] = tested on: STAPHYLOCOCCUS AUREUS A5177; experiment: as above; conditions: S. aureus A5177, unit assumed
CANDIDA ALBICANS CCH 442 = experiment: as above; conditions: C. albicans CCH 442, unit assumed
[15] = tested on: STREPTOCOCCUS PYOGENES PIU 2548; experiment: as above; conditions: S. pyogenes PIU 2548, unit assumed
[16] = tested on: STAPHYLOCOCCUS EPIDERMIDIS 3519; conditions: S. epidermidis 3519; BHI agar; unit assumed
[17] = tested on: STREPTOCOCCUS BOVIS A-5169; experiment: In vitro antibacterial activity, MIC, BHI agar dilution; conditions: S. bovis A-5169, unit assumed
[18] = tested on: PSEUDOMONAS AERUGINOSA K799/61; experiment: as above; conditions: P. aeruginosa K799/61, unit assumed
[19] = tested on: ACINETOBACTER CALCOACETICUS CMX 669; experiment: as above; conditions: A. calcoaceticus CMX 669, unit assumed
[20] = tested on: PSEUDOMONAS AERUGINOSA BMH10; experiment: as above; conditions: P. aeruginosa BMH10, unit assumed
[21] = tested on: STAPHYLOCOCCUS AUREUS A-5278; experiment: as above; conditions: S. aureus A-5278, unit assumed
[22] = tested on: STAPHYLOCOCCUS AUREUS CMX 642A; experiment: as above; conditions: S. aureus CMX 642A, unit assumed
ESCHERICHIA COLI JUHL = conditions: E. coli JUHL; BHI agar; unit assumed
[23] = tested on: PSEUDOMONAS AERUGINOSA DPHD-5263; experiment: In vitro antibacterial activity, MIC, BHI agar dilution; conditions: P. aeruginosa DPHD-5263, unit assumed
ESCHERICHIA COLI DC-2 = experiment: as above; conditions: E. coli DC-2, unit assumed
ESCHERICHIA COLI KNK 437 = conditions: E. coli KNK 437; BHI agar; unit assumed

Measured: MIC

CC[C@H]1OC(=O)[C@H](C)C(=O)[C@H](C)[C@@H](O[C@@H]2O[C@H](C)C[C@H](N(C)C)[C@H]2O)[C@](C)(OC)C[C@@H](C)C2=N[C@H](COCCN3CCOCC3)CN3C(=O)O[C@@]1(C)[C@H]3[C@H]2C [Example 87]
0.05 µg/mL: [17]
0.2 µg/mL: [1] | STR[…] 508
1.56 µg/mL: ESCHERICHIA COLI SS | M[…] ATCC 4698 | [4] | [6] | [10] | [14] | [16] | [22]
12.5 µg/mL: [5]
0.1 µg/mL: M[…] ATCC 9341
3.1 µg/mL: [15] | [18]
0.39 µg/mL: EN[…] ATCC 8043
> 100 µg/mL: all other assays above

CCC1OC(=O)C(C)C(=O)C(C)C(OC2OC(C)CC(N(C)C)C2O)C(C)(OC)CC(C)C2=NC(CCOc3ccccc3)CN3C(=O)OC1(C)C3C2C (centres unmarked) [Example 91]
0.1 µg/mL: M[…] ATCC 9341 | EN[…] ATCC 8043
0.39 µg/mL: M[…] ATCC 4698 | [15]
0.78 µg/mL: [4] | [6] | [10] | [14] | [16] | [22]
1.56 µg/mL: [5]
12.5 µg/mL: [18]
100 µg/mL: [7]
0.05 µg/mL: [1] | STR[…] 508
0.01 µg/mL: [17]
3.1 µg/mL: ESCHERICHIA COLI SS
> 100 µg/mL: all other assays above
